Where two headings read alike, the source gives them in different places.
Columns and labels:
Format in all cases: in vivo
Setaria viridis (SETVI) [1] = experiment: Post-emergence herbicidal action against SETVI
Procedure: (§1) Seeds of monocotyledonous and dicotyledonous weeds and crop plants are placed in sandy loam in plastic or organic planting pots, covered with soil and cultivated in a greenhouse under controlled growth conditions. 2 to 3 weeks after sowing, the test plants are treated at the one-leaf stage. The compounds of the invention, formulated in the form of wettable powders (WP) or as emulsion concentrates (EC), are then sprayed onto the green parts of the plants as aqueous suspension or emulsion with addition of 0.5% additive at a water application rate of 600 l/ha (converted). After the test plants have been kept in the greenhouse under optimum growth conditions for about 3 weeks, the activity of the preparations is rated visually in comparison to untreated controls. For example, 100% activity=the plants have died, 0% activity=like control plants.
(§2) Tables B1 to B13 below show the effects of selected compounds of the general formula (I) according to Table 1 on various harmful plants and at an application rate corresponding to 320 g/ha or lower, which were obtained by the experimental procedure mentioned above. The appendices “a”, “b” and “c” give differentiation by dosage used with otherwise the same harmful plants tested.

Lolium rigidum (LOLRI) [2] = experiment: Pre-emergence herbicidal action against LOLRI
From the text: (§3) Seeds of monocotyledonous and dicotyledonous weed plants and crop plants are placed in plastic or organic planting pots and covered with soil. The compounds of the invention, formulated in the form of wettable powders (WP) or as emulsion concentrates (EC), are then applied to the surface of the covering soil as aqueous suspension or emulsion with addition of 0.5% additive at a water application rate equivalent to 600 l/ha. After the treatment, the pots are placed in a greenhouse and kept under good growth conditions for the trial plants. After about 3 weeks, the effect of the preparations is scored visually in comparison with untreated controls as percentages. For example, 100% activity=the plants have died, 0% activity=like control plants.
(§4) Tables A1 to A13 below show the effects of selected compounds of the general formula (I) on various harmful plants and at an application rate corresponding to 320 g/ha or lower, which were obtained by the experimental procedure mentioned above. The appendices “a”, “b” and “c” give differentiation by dosage used with otherwise the same harmful plants tested.

Lolium rigidum (LOLRI) [3] = experiment: Post-emergence herbicidal action against LOLRI
Procedure: as §1, §2

Viola tricolor (VIOTR) [4] = experiment: Pre-emergence herbicidal action against VIOTR
From the text: as §3, §4

[5] = system: Alopecurus myosuroides (ALOMY); experiment: Pre-emergence herbicidal action against ALOMY; details: scored visually after about 3 weeks, 100% = plants have died
From the text: as §3, §4

[6] = system: Verconica persica (VERPE); experiment: Pre-emergence herbicidal action against VERPE
From the text: as §3, §4

[7] = system: Echinochloa crus-galli (ECHCG); experiment: Post-emergence herbicidal action against ECHCG
Procedure: as §1, §2

[8] = system: Alopecurus myosuroides (ALOMY); experiment: Post-emergence herbicidal action against ALOMY; details: visual rating about 3 weeks after treatment vs untreated controls (100% = plants have died, 0% = like control plants)
Procedure: as §1, §2

[9] = system: Polygonum convolvulus (POLCO); experiment: Post-emergence herbicidal action against POLCO; details: dosage 320 g/ha
Procedure: as §1, §2

Viola tricolor (VIOTR) [10] = experiment: Post-emergence herbicidal action against VIOTR
Procedure: as §1, §2

Avena fatua (AVEFA) [11] = experiment: Pre-emergence herbicidal action against AVEFA; details: visual scoring after about 3 weeks vs untreated controls
From the text: as §3, §4

[12] = system: Abutilon theophrasti (ABUTH); experiment: Post-emergence herbicidal action against ABUTH; details: 320 g/ha, visual rating about 3 weeks after treatment vs untreated controls (100% = plants have died, 0% = like control plants)
Procedure: as §1, §2

[13] = system: Polygonum convolvulus (POLCO); experiment: Pre-emergence herbicidal action against POLCO
From the text: as §3, §4

[14] = system: Verconica persica (VERPE); experiment: Post-emergence herbicidal action against VERPE
Procedure: as §1, §2

[15] = system: Matricaria inodora (MATIN); experiment: Pre-emergence herbicidal action against MATIN
From the text: as §3, §4

Oryza sativa (ORYSA) = details: crop plant compatibility
Procedure: as §1
(§5) The observed effects on selected crop plants are reported here in comparison to the untreated controls (values in %). The appendices “a”, “b” and “c” give differentiation by dosage used with otherwise the same crop plants tested.

Zea mays (ZEAMX) = system: Zea mays (ZEAMX)
Procedure: as §1, §5

Setaria viridis (SETVI) [16] = experiment: Pre-emergence herbicidal action against SETVI
From the text: as §3, §4

Avena fatua (AVEFA) [17] = experiment: Post-emergence herbicidal action against AVEFA; details: visual rating about 3 weeks after treatment
Procedure: as §1, §2

[18] = system: Amaranthus retroflexus (AMARE); experiment: Pre-emergence herbicidal action against AMARE; details: visual scoring after about 3 weeks vs untreated controls
From the text: as §3, §4

[19] = system: Echinochloa crus-galli (ECHCG); experiment: Pre-emergence herbicidal action against ECHCG; details: dosage 320 g/ha
From the text: as §3, §4

[20] = system: Pharbitis purpurea (PHBPU); experiment: Post-emergence herbicidal action against PHBPU
Procedure: as §1, §2

[21] = system: Amaranthus retroflexus (AMARE); experiment: Post-emergence herbicidal action against AMARE
Procedure: as §1, §2

[22] = 80 g/ha, effect in comparison to untreated controls

| Post-emergence action against ORYSA in % (Oryza sativa (ORYSA); [22]) [%] | Structure (SMILES) | Post-emergence action against SETVI in % (Setaria viridis (SETVI) [1]; dosage 320 g/ha) [%] | Pre-emergence action against LOLRI in % (Lolium rigidum (LOLRI) [2]; dosage 80 g/ha) [%] | Pre-emergence action against LOLRI in % (Lolium rigidum (LOLRI) [2]; dosage 320 g/ha) [%] | Post-emergence action against LOLRI in % (Lolium rigidum (LOLRI) [3]; dosage 320 g/ha) [%] | Pre-emergence action against VIOTR in % (Viola tricolor (VIOTR) [4]; 320 g/ha, Viola tricolor) [%] | Pre-emergence action against VIOTR in % (Viola tricolor (VIOTR) [4]; dosage 80 g/ha) [%] | Pre-emergence action against ALOMY ([5]; 80 g/ha) [%] | Pre-emergence action against ALOMY ([5]; 320 g/ha) [%] | Pre-emergence action against VERPE in % ([6]; dosage 320 g/ha) [%] | Post-emergence action against ECHCG in % ([7]; dosage 80 g/ha) [%] | Post-emergence action against ECHCG in % ([7]; dosage 320 g/ha) [%] | Post-emergence action against ALOMY in % ([8]; 80 g/ha) [%] | Post-emergence action against ALOMY in % ([8]; 320 g/ha) [%] | Pre-emergence action against AVEFA in % (Avena fatua (AVEFA) [11]; 320 g/ha) [%] | Pre-emergence action against MATIN in % ([15]; dosage 320 g/ha) [%] | Pre-emergence action against SETVI in % (Setaria viridis (SETVI) [16]; dosage 320 g/ha) [%] | Pre-emergence action against AMARE in % ([18]; 80 g/ha) [%] | Pre-emergence action against AMARE in % ([18]; 320 g/ha) [%] | Pre-emergence action against ECHCG in % [19] [%] | also measured |
| --- | --- | --- | --- | --- | --- | --- | --- | --- | --- | --- | --- | --- | --- | --- | --- | --- | --- | --- | --- | --- | --- |
| 20 | C[C@@H](Oc1nn(-c2nc(F)ccc2F)c(-c2ccc(F)nc2)c1Cl)C(=O)O [Example I-311] | 80 | 90 | 90 | 80 | 100 | 90 | 80 | 90 | 90 | 80 | 90 | 80 | 90 | 90 | 90 | 100 | 80 | 90 | 100 | Pre-emergence action against VERPE in % ([6]; dosage 80 g/ha): 80%; Post-emergence action against POLCO in % [9]: 80%; Post-emergence action against VIOTR in % (Viola tricolor (VIOTR) [10]; 80 g/ha): 80%; Post-emergence action against VIOTR in % (Viola tricolor (VIOTR) [10]; 320 g/ha): 80%; Post-emergence action against ABUTH in % [12]: 80%; Pre-emergence action against POLCO in % ([13]; dosage 80 g/ha): 80%; Pre-emergence action against POLCO in % ([13]; dosage 320 g/ha): 90%; Post-emergence action against VERPE in % ([14]; 320 g/ha, VERPE): 90%; Pre-emergence action against MATIN in % ([15]; dosage 80 g/ha): 80%; Post-emergence action against ZEAMX in % (Zea mays (ZEAMX); crop plant compatibility, 80 g/ha, effect vs untreated controls): 10%; Post-emergence action against AVEFA in % (Avena fatua (AVEFA) [17]; 320 g/ha): 80%; Post-emergence action against PHBPU in % ([20]; dosage 320 g/ha): 90% |
| 20 | CCOC(=O)[C@@H](C)Oc1nn(-c2ccccn2)c(-c2ccc(F)nc2)c1Br [Example I-91] |  | 100 | 100 |  | 100 | 90 | 90 | 100 | 100 | 80 |  | 90 |  | 100 | 90 | 100 | 90 | 100 | 100 | Post-emergence action against SETVI in % (Setaria viridis (SETVI) [1]; dosage 80 g/ha): 80%; Post-emergence action against LOLRI in % (Lolium rigidum (LOLRI) [3]; dosage 80 g/ha): 90%; Post-emergence action against AMARE in % ([21]; 80 g/ha, visual rating about 3 weeks after treatment vs untreated controls (100% = plants have died, 0% = like control plants)): 90%; Post-emergence action against VERPE in % ([14]; dosage 80 g/ha): 80%; Post-emergence action against ORYSA in % (Oryza sativa (ORYSA); 20 g/ha, effect vs untreated controls): 0%; Post-emergence action against ZEAMX in % (crop plant compatibility) (Zea mays (ZEAMX); 20 g/ha, ZEAMX, effect in comparison to untreated controls): 20%; Pre-emergence action against SETVI in % (Setaria viridis (SETVI) [16]; dosage 80 g/ha): 100%; Post-emergence action against AVEFA in % (Avena fatua (AVEFA) [17]; 80 g/ha): 90%; Post-emergence action against PHBPU in % ([20]; dosage 80 g/ha): 80% |
| 20 | C[C@@H](Oc1nn(-c2nc(F)ccc2F)c(-c2ccc(F)nc2)c1Br)C(=O)O [Example I-333] | 80 | 80 | 100 | 90 | 100 | 100 | 90 | 100 | 100 | 80 | 90 | 90 | 90 | 90 | 90 | 90 | 90 | 100 | 90 | Post-emergence action against POLCO in % [9]: 80%; Post-emergence action against VIOTR in % (Viola tricolor (VIOTR) [10]; 320 g/ha): 80%; Pre-emergence action against AVEFA in % (Avena fatua (AVEFA) [11]; 80 g/ha): 80%; Post-emergence action against AMARE in % ([21]; 320 g/ha, visual rating about 3 weeks after treatment): 80%; Post-emergence action against ABUTH in % [12]: 80%; Pre-emergence action against POLCO in % ([13]; dosage 80 g/ha): 90%; Pre-emergence action against POLCO in % ([13]; dosage 320 g/ha): 90%; Post-emergence action against VERPE in % ([14]; 320 g/ha, VERPE): 90%; Pre-emergence action against MATIN in % ([15]; dosage 80 g/ha): 80%; Post-emergence action against AVEFA in % (Avena fatua (AVEFA) [17]; 80 g/ha): 80%; Post-emergence action against AVEFA in % (Avena fatua (AVEFA) [17]; 320 g/ha): 90%; Post-emergence action against PHBPU in % ([20]; dosage 80 g/ha): 80%; Post-emergence action against PHBPU in % ([20]; dosage 320 g/ha): 90% |

Reference: patent US20240041042A1, “1-(PYRIDYL)-5-AZINYLPYRAZOLE DERIVATIVES, AND THEIR USE FOR CONTROL OF UNDESIRED PLANT GROWTH” (Bayer Aktiengesellschaft, priority 2020, published 2024)
